From PubChem BioAssay (NCI)
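48-hour exposure; five concentrations; linearly interpolated endpoints. GI50 is the concentration that inhibits growth by half. TGI is the concentration that stops growth completely.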

How the values were obtained:
Assay in all cases: NCI-60 cell line screen, 48 h
786-0 renal = system: 786-0 renal
A498 renal = system: A498 renal
A549 NSCLC = system: A549 NSCLC
ACHN renal = system: ACHN renal
BT-549 breast = system: BT-549 breast
CAKI-1 renal = system: CAKI-1 renal
CCRF-CEM leukemia = system: CCRF-CEM leukemia
COLO 205 colon = system: COLO 205 colon
DU-145 prostate = system: DU-145 prostate
HCC-2998 colon = system: HCC-2998 colon
HCT-116 colon = system: HCT-116 colon
HCT-15 colon = system: HCT-15 colon
HL-60(TB) leukemia = system: HL-60(TB) leukemia
HOP-62 NSCLC = system: HOP-62 NSCLC
HOP-92 NSCLC = system: HOP-92 NSCLC
HS 578T breast = system: HS 578T breast
HT29 colon = system: HT29 colon
IGROV1 ovarian = system: IGROV1 ovarian
K-562 leukemia = system: K-562 leukemia
KM12 colon = system: KM12 colon
LOX IMVI melanoma = system: LOX IMVI melanoma
M14 melanoma = system: M14 melanoma
MALME-3M melanoma = system: MALME-3M melanoma
MCF7 breast = system: MCF7 breast
MDA-MB-231 breast = system: MDA-MB-231 breast
MDA-MB-435 = system: MDA-MB-435
MOLT-4 leukemia = system: MOLT-4 leukemia
NCI-H226 lung = system: NCI-H226 lung
NCI-H23 lung = system: NCI-H23 lung
NCI-H460 lung = system: NCI-H460 lung
NCI-H522 lung = system: NCI-H522 lung
NCI/ADR-RES ovarian = system: NCI/ADR-RES ovarian
OVCAR-3 ovarian = system: OVCAR-3 ovarian
OVCAR-4 ovarian = system: OVCAR-4 ovarian
OVCAR-5 ovarian = system: OVCAR-5 ovarian
OVCAR-8 ovarian = system: OVCAR-8 ovarian
PC-3 prostate = system: PC-3 prostate
RPMI-8226 leukemia = system: RPMI-8226 leukemia
RXF 393 renal = system: RXF 393 renal
SF-268 CNS = system: SF-268 CNS
SF-295 CNS = system: SF-295 CNS
SF-539 CNS = system: SF-539 CNS
SK-MEL-2 melanoma = system: SK-MEL-2 melanoma
SK-MEL-28 melanoma = system: SK-MEL-28 melanoma
SK-MEL-5 melanoma = system: SK-MEL-5 melanoma
SK-OV-3 ovarian = system: SK-OV-3 ovarian
SN12C renal = system: SN12C renal
SNB-19 CNS = system: SNB-19 CNS
SNB-75 CNS = system: SNB-75 CNS
SR leukemia = system: SR leukemia
SW-620 colon = system: SW-620 colon
T-47D breast = system: T-47D breast
TK-10 renal = system: TK-10 renal
U251 CNS = system: U251 CNS
UACC-257 melanoma = system: UACC-257 melanoma
UACC-62 melanoma = system: UACC-62 melanoma
UO-31 renal = system: UO-31 renal

## O=C1C=CC(=O)N1C1CCCCCCCCCCC1
786-0 renal
  GI50: 16.1 µM
  TGI: 29.7 µM
A498 renal
  GI50: 16.5 µM
  TGI: > 93.7 µM
A549 NSCLC
  GI50: 32.8 µM
  TGI: > 100 µM
ACHN renal
  GI50: 2.73 µM
  TGI: 7.69 µM
BT-549 breast
  GI50: 11.3 µM
  TGI: 24.6 µM
CAKI-1 renal
  GI50: 5.95 µM
  TGI: 16.3 µM
CCRF-CEM leukemia
  GI50: 0.939 µM
  TGI: 4.93 µM
COLO 205 colon
  GI50: 2.78 µM
  TGI: 8.16 µM
DU-145 prostate
  GI50: 13.9 µM
  TGI: 27.2 µM
HCC-2998 colon
  GI50: 28.9 µM
  TGI: > 73.8 µM
HCT-116 colon
  GI50: 2.15 µM
  TGI: 4.94 µM
HCT-15 colon
  GI50: 3.72 µM
  TGI: 14.9 µM
HL-60(TB) leukemia
  GI50: 5.25 µM
  TGI: 15.9 µM
HOP-62 NSCLC
  GI50: 31.5 µM
  TGI: > 100 µM
HOP-92 NSCLC
  GI50: 2.12 µM
  TGI: 7.72 µM
HS 578T breast
  GI50: 17.8 µM
  TGI: > 65.3 µM
HT29 colon
  GI50: 7.86 µM
  TGI: 26.4 µM
IGROV1 ovarian
  GI50: 13.6 µM
  TGI: > 49.2 µM
K-562 leukemia
  GI50: 2.93 µM
  TGI: 12.8 µM
KM12 colon
  GI50: 41.2 µM
  TGI: > 100 µM
LOX IMVI melanoma
  GI50: 2.44 µM
  TGI: 6.72 µM
M14 melanoma
  GI50: 10.4 µM
  TGI: 25.8 µM
MALME-3M melanoma
  GI50: 5.07 µM
  TGI: 15.8 µM
MCF7 breast
  GI50: 3.58 µM
  TGI: 16.3 µM
MDA-MB-231 breast
  GI50: 14.5 µM
  TGI: 30 µM
MDA-MB-435
  GI50: 13.7 µM
  TGI: 28.5 µM
MOLT-4 leukemia
  GI50: 3.28 µM
  TGI: 20.1 µM
NCI-H226 lung
  GI50: 9.75 µM
  TGI: 24.3 µM
NCI-H23 lung
  GI50: 19.1 µM
  TGI: 47.5 µM
NCI-H460 lung
  GI50: 81.1 µM
  TGI: > 100 µM
NCI-H522 lung
  GI50: 1.7 µM
  TGI: 3.37 µM
NCI/ADR-RES ovarian
  GI50: 30.6 µM
  TGI: > 100 µM
OVCAR-3 ovarian
  GI50: 6.4 µM
  TGI: 16.2 µM
OVCAR-4 ovarian
  GI50: 11.5 µM
  TGI: 24.2 µM
OVCAR-5 ovarian
  GI50: 19.8 µM
  TGI: 48.7 µM
OVCAR-8 ovarian
  GI50: 13.9 µM
  TGI: 27.4 µM
PC-3 prostate
  GI50: 14.2 µM
  TGI: 30.9 µM
RPMI-8226 leukemia
  GI50: 4.91 µM
  TGI: 34 µM
RXF 393 renal
  GI50: 4.96 µM
  TGI: 17.1 µM
SF-268 CNS
  GI50: 19.2 µM
  TGI: 51.8 µM
SF-295 CNS
  GI50: 78.7 µM
  TGI: > 100 µM
SF-539 CNS
  GI50: 15.3 µM
  TGI: 29.4 µM
SK-MEL-2 melanoma
  GI50: 16.4 µM
  TGI: 33.8 µM
SK-MEL-28 melanoma
  GI50: 14.5 µM
  TGI: 28.3 µM
SK-MEL-5 melanoma
  GI50: 16.4 µM
  TGI: 37 µM
SK-OV-3 ovarian
  GI50: > 65.5 µM
  TGI: > 100 µM
SN12C renal
  GI50: 15.6 µM
  TGI: 33 µM
SNB-19 CNS
  GI50: > 84.6 µM
  TGI: > 100 µM
SNB-75 CNS
  GI50: 12.7 µM
  TGI: > 79.9 µM
SR leukemia
  GI50: 2.23 µM
  TGI: 23.8 µM
SW-620 colon
  GI50: 2.59 µM
  TGI: 8.14 µM
T-47D breast
  GI50: 3.08 µM
  TGI: 11.3 µM
TK-10 renal
  GI50: 3.35 µM
  TGI: 11.8 µM
U251 CNS
  GI50: 27 µM
  TGI: > 86.9 µM
UACC-257 melanoma
  GI50: 13 µM
  TGI: 27.2 µM
UACC-62 melanoma
  GI50: 14.7 µM
  TGI: 28.5 µM
UO-31 renal
  GI50: 3.42 µM
  TGI: 14.2 µM

## O=C(Nc1cccc(-n2cc(-c3ccncc3)c(-c3ccc(Cl)c(O)c3)n2)c1)Nc1ccc(Cl)c(C(F)(F)F)c1
786-0 renal
  GI50: 1.02 µM
  TGI: 8.25 µM
A498 renal
  GI50: 1.24 µM
  TGI: 7.93 µM
A549 NSCLC
  GI50: 0.914 µM
  TGI: 4.07 µM
ACHN renal
  GI50: 0.89 µM
  TGI: 32.5 µM
BT-549 breast
  GI50: 1.16 µM
  TGI: 5.36 µM
CAKI-1 renal
  GI50: 0.726 µM
  TGI: 2.3 µM
CCRF-CEM leukemia
  GI50: 0.719 µM
  TGI: 2.7 µM
COLO 205 colon
  GI50: 2.23 µM
  TGI: 6.73 µM
DU-145 prostate
  GI50: 1.16 µM
  TGI: 4.51 µM
HCC-2998 colon
  GI50: 1.39 µM
  TGI: 6.23 µM
HCT-116 colon
  GI50: 0.938 µM
  TGI: 3.63 µM
HCT-15 colon
  GI50: 0.949 µM
  TGI: 10.3 µM
HL-60(TB) leukemia
  GI50: 1.23 µM
  TGI: 8.99 µM
HOP-62 NSCLC
  GI50: 1.04 µM
  TGI: 4.75 µM
HOP-92 NSCLC
  GI50: 0.31 µM
  TGI: 1.29 µM
HS 578T breast
  GI50: 1.05 µM
  TGI: 15.7 µM
HT29 colon
  GI50: 2.05 µM
  TGI: 7.11 µM
IGROV1 ovarian
  GI50: 0.77 µM
  TGI: 2.43 µM
K-562 leukemia
  GI50: 0.768 µM
  TGI: 9.36 µM
KM12 colon
  GI50: 0.91 µM
  TGI: 3.43 µM
LOX IMVI melanoma
  GI50: 0.554 µM
  TGI: 1.15 µM
M14 melanoma
  GI50: 0.805 µM
  TGI: 2.3 µM
MALME-3M melanoma
  GI50: 0.557 µM
  TGI: 1.58 µM
MCF7 breast
  GI50: 0.663 µM
  TGI: 32.5 µM
MDA-MB-231 breast
  GI50: 0.538 µM
  TGI: 1.48 µM
MDA-MB-435
  GI50: 0.64 µM
  TGI: 1.66 µM
MOLT-4 leukemia
  GI50: 0.777 µM
  TGI: 2.93 µM
NCI-H226 lung
  GI50: 1.33 µM
  TGI: 14.6 µM
NCI-H23 lung
  GI50: 1.04 µM
  TGI: 4 µM
NCI-H460 lung
  GI50: 0.963 µM
  TGI: 3.69 µM
NCI-H522 lung
  GI50: 0.643 µM
  TGI: 2.19 µM
NCI/ADR-RES ovarian
  GI50: 1.01 µM
  TGI: 9.46 µM
OVCAR-3 ovarian
  GI50: 0.658 µM
  TGI: 1.95 µM
OVCAR-4 ovarian
  GI50: 1.12 µM
  TGI: 27.2 µM
OVCAR-5 ovarian
  GI50: 1.71 µM
  TGI: 12.3 µM
OVCAR-8 ovarian
  GI50: 0.759 µM
  TGI: 2.28 µM
PC-3 prostate
  GI50: 0.533 µM
  TGI: 2.11 µM
RPMI-8226 leukemia
  GI50: 0.487 µM
  TGI: 1.67 µM
RXF 393 renal
  GI50: 0.557 µM
  TGI: 1.67 µM
SF-268 CNS
  GI50: 1.11 µM
  TGI: 6.65 µM
SF-295 CNS
  GI50: 0.656 µM
  TGI: 1.71 µM
SF-539 CNS
  GI50: 0.73 µM
  TGI: 2.2 µM
SK-MEL-2 melanoma
  GI50: 0.784 µM
  TGI: 1.68 µM
SK-MEL-28 melanoma
  GI50: 0.928 µM
  TGI: 3.21 µM
SK-MEL-5 melanoma
  GI50: 0.528 µM
  TGI: 1.04 µM
SK-OV-3 ovarian
  GI50: 1.27 µM
  TGI: 9.73 µM
SN12C renal
  GI50: 1.05 µM
  TGI: 10.3 µM
SNB-19 CNS
  GI50: 1.17 µM
  TGI: 5.31 µM
SNB-75 CNS
  GI50: 0.514 µM
  TGI: 5.05 µM
SR leukemia
  GI50: 0.663 µM
  TGI: 2.05 µM
SW-620 colon
  GI50: 1.07 µM
  TGI: 3.77 µM
T-47D breast
  GI50: 0.911 µM
  TGI: 9.01 µM
TK-10 renal
  GI50: 1.33 µM
  TGI: 7.52 µM
U251 CNS
  GI50: 0.542 µM
  TGI: 1.27 µM
UACC-257 melanoma
  GI50: 0.705 µM
  TGI: 1.88 µM
UACC-62 melanoma
  GI50: 0.609 µM
  TGI: 1.47 µM
UO-31 renal
  GI50: 0.738 µM
  TGI: 2.59 µM
